Source: patent publication US9951077B2, “Aminopyridazinone compounds as protein kinase inhibitors” (ETERNITY BIOSCIENCE INC., priority 2014, dated 2018)
pIC50: −log10 of the molar value.

Target: Btk (Homo sapiens (Human), UniProt Q06187)
Experiment: Btk kinase assay (ADP-Glo)
Format: biochemical
Details: ATP 1.2 μM, 60 minutes, room temperature; read-out: BTK enzyme IC50
Experimental: The Btk kinase assay was performed using a ADP-Glo Btk kinase assay kit purchased from Promega (Madison, Wis.). The assay was conducted according to the protocols provided in the assay kit. In brief, the enzyme reaction was carried out in the kinase reaction buffer containing Btk (2 ng/μl), ATP (1.2 μM), poly GT peptide (0.3 μM), DTT (40 nM), MnCl2 (1.4 mM), and 1×kinase buffer (included in the kit) in the presence or absence of the tested articles at various concentrations in 384-well plate at room temperature (22±1° C.) for 60 minutes. The final reaction volume for each reaction was 10 μl. Then, 4 μl of ADP-Glo reagent (included in the kit) was added into the reaction and the plate was further incubated for another 40 minutes to terminate the reaction and deplete the remaining ATP. Finally, 10 μl of the kinase detection reagent was added into each reaction to simultaneously convert ADP to ATP and allow the newly synthesized ATP to be measured by a plate-reading luminometer (Victor X5 2030 multilabel reader, PerkinElmer). IC50 value was calculated using appropriate programs in GraphPad Prism by plotting the logarithm of the concentration versus percent inhibition as compared with a vehicle (DMSO) control.

Sequence of Btk (Q06187 whole entry): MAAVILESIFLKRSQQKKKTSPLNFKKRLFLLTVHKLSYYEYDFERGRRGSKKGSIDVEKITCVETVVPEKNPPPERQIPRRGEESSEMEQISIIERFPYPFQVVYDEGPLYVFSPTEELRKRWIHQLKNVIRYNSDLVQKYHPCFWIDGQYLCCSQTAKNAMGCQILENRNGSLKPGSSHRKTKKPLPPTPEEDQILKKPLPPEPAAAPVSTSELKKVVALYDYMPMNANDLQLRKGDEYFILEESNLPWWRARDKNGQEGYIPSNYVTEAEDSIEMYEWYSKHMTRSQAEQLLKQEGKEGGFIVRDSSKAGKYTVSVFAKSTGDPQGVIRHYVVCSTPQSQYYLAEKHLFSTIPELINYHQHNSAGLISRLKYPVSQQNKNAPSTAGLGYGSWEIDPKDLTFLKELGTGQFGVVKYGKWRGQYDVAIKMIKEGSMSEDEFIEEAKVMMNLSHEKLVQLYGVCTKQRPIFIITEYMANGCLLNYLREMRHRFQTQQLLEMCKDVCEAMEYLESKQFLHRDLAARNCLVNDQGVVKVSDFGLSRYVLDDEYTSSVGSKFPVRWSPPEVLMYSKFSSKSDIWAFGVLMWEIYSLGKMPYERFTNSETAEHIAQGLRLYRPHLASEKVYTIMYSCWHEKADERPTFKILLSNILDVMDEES

| SMILES | pIC50 |
| --- | --- |
| C=CC(=O)N1CCC[C@@H](n2c(Cl)c(-c3ccc(Oc4ccccc4F)cc3)c3c(N)n[nH]c(=O)c32)C1 [Example 83, (R)-1-(1-acryloylpiperidin-3-yl)-4-amino-2-chloro-3-(4-(2-fluorophenoxy)phenyl)-1H-pyrrolo[2,3-d]pyridazin-7(6H)-one] | 4.00 to 6.00 |
| CN(C)C/C=C/C(=O)Nc1cccc(-n2cc(-c3ccc(Oc4ccccc4F)cc3)c3c(N)n[nH]c(=O)c32)c1 [Example 92, (E)-N-[3-[4-amino-3-[4-(2-fluorophenoxy)phenyl]-7-oxo-6H-pyrrolo[2,3-d]pyridazin-1-yl]phenyl]-4-(dimethylamino)but-2-enamide] | 6.00 to 8.00 |
| N#CN1CCC[C@@H](n2c(Cl)c(-c3ccc(Oc4ccccc4F)cc3)c3c(N)n[nH]c(=O)c32)C1 [Example 86, (R)-3-(4-amino-2-chloro-3-(4-(2-fluorophenoxy)phenyl)-7-oxo-6,7-dihydro-1H-pyrrolo[2,3-d]pyridazin-1-yl)piperidine-1-carbonitrile] | 4.00 to 6.00 |
| CC#CC(=O)NC1CCC(n2cc(-c3ccc(Oc4ccccc4F)cc3)c3c(N)n[nH]c(=O)c32)C1 (stereo not shown) [Example 100, N-(3-(4-amino-3-(4-(2-fluorophenoxy)phenyl)-7-oxo-6,7-dihydro-1H-pyrrolo[2,3-d]pyridazin-1-yl)cyclopentyl)but-2-ynamide] | 6.00 to 8.00 |
| CC#CC(=O)N1CC[C@H](n2cc(-c3ccc(Oc4ccccc4F)cc3)c3c(N)n[nH]c(=O)c32)C1 [Example 101, (S)-4-amino-1-(1-(but-2-ynoyl)pyrrolidin-3-yl)-3-(4-(2-fluorophenoxy)phenyl)-1H-pyrrolo[2,3-d]pyridazin-7(6H)-one] | 4.00 to 6.00 |
| C=CC(=O)N1CCCC(n2cc(-c3ccc(Oc4ccc(F)cc4)cc3)c3c(N)n[nH]c(=O)c32)C1 (stereo not shown) [Example 60, 1-(1-acryloylpiperidin-3-yl)-4-amino-3-(4-(4-fluorophenoxy)phenyl)-1H-pyrrolo[2,3-d]pyridazin-7(6H)-one] | 6.00 to 8.00 |
| CN(C)C/C=C/C(=O)N1CCCC(n2cc(-c3ccc(Oc4ccc(F)cc4)cc3)c3c(N)n[nH]c(=O)c32)C1 (stereo not shown) [Example 61, 4-amino-1-[1-[(E)-4-(dimethylamino)but-2-enoyl]-3-piperidyl]-3-[4-(4-fluorophenoxy)phenyl]-6H-pyrrolo[2,3-d]pyridazin-7-one] | 6.00 to 8.00 |
| C=CC(=O)N1CCCC(n2cc(-c3ccc(Oc4cccc(F)c4)cc3)c3c(N)n[nH]c(=O)c32)C1 (stereo not shown) [Example 62, 1-(1-acryloylpiperidin-3-yl)-4-amino-3-(4-(3-fluorophenoxy)phenyl)-1H-pyrrolo[2,3-d]pyridazin-7(6H)-one] | 6.00 to 8.00 |
| C=CC(=O)N[C@H]1CC[C@H](n2cc(-c3ccc(Oc4ccccc4F)cc3)c3c(N)n[nH]c(=O)c32)CC1 [Example 105, N-((1r,4r)-4-(4-amino-3-(4-(2-fluorophenoxy)phenyl)-7-oxo-6,7-dihydro-1H-pyrrolo[2,3-d]pyridazin-1-yl)cyclohexyl)acrylamide] | 6.00 to 8.00 |
| C=CC(=O)N1CCC[C@H](n2cc(-c3ccc(Oc4c(F)cccc4F)cc3)c3c(N)n[nH]c(=O)c32)C1 [Example 114, (S)-1-(1-acryloylpiperidin-3-yl)-4-amino-3-(4-(2,6-difluorophenoxy)phenyl)-1H-pyrrolo[2,3-d]pyridazin-7(6H)-one] | 6.00 to 8.00 |
| C=CC(=O)N1CCCC(n2cc(-c3ccc(Oc4cccc(Cl)c4)cc3)c3c(N)n[nH]c(=O)c32)C1 (stereo not shown) [Example 66, 1-(1-acryloylpiperidin-3-yl)-4-amino-3-(4-(3-chlorophenoxy)phenyl)-1H-pyrrolo[2,3-d]pyridazin-7(6H)-one] | 6.00 to 8.00 |
| CN(C)C/C=C/C(=O)N1CCC[C@@H](n2cc(-c3ccc(Oc4c(F)cccc4F)cc3)c3c(N)n[nH]c(=O)c32)C1 [Example 59, 4-amino-3-[4-(2,6-difluorophenoxy)phenyl]-1-[(3R)-1-[(E)-4-(dimethylamino)but-2-enoyl]-3-piperidyl]-6H-pyrrolo[2,3-d]pyridazin-7-one] | 6.00 to 8.00 |
| C=CC(=O)N1CCC[C@@H](n2cc(-c3ccc(Oc4ccccc4)cc3F)c3c(N)n[nH]c(=O)c32)C1 [Example 76, (R)-1-(1-acryloylpiperidin-3-yl)-4-amino-3-(2-fluoro-4-phenoxyphenyl)-1H-pyrrolo[2,3-d]pyridazin-7(6H)-one] | 6.00 to 8.00 |

Second part, the compound after the results:

| pIC50 | SMILES |
| --- | --- |
| 6.00 to 8.00 | C=CC(=O)N1CC(Cn2cc(-c3ccc(Oc4ccccc4)cc3)c3c(N)n[nH]c(=O)c32)C1 [Example 12, 4-amino-3-(4-phenoxyphenyl)-1-[(1-prop-2-enoylazetidin-3-yl)methyl]-6H-pyrrolo[2,3-d]pyridazin-7-one] |
| 6.00 to 8.00 | C=CC(=O)N1CCC[C@@H](n2cc(-c3ccc(Oc4ccc(Cl)c(Cl)c4)c(OC)c3)c3c(N)n[nH]c(=O)c32)C1 [Example 72, (R)-1-(1-acryloylpiperidin-3-yl)-4-amino-3-(4-(3,4-dichlorophenoxy)-3-methoxyphenyl)-1H-pyrrolo[2,3-d]pyridazin-7(6H)-one] |
| 6.00 to 8.00 | Nc1n[nH]c(=O)c2c1c(-c1ccc(Oc3ccccc3)cc1)cn2[C@@H]1CCCN(C(=O)C2CC2)C1 [Example 23, 4-amino-1-[(3R)-1-(cyclopropanecarbonyl)-3-piperidyl]-3-(4-phenoxyphenyl)-6H-pyrrolo[2,3-d]pyridazin-7-one] |
| 6.00 to 8.00 | COc1cc(-c2cn([C@@H]3CCCN(C(=O)/C=C/CN(C)C)C3)c3c(=O)[nH]nc(N)c23)ccc1Oc1ccc(Cl)c(Cl)c1 [Example 73, 4-amino-3-[4-(3,4-dichlorophenoxy)-3-methoxy-phenyl]-1-[(3R)-1-[(E)-4-(dimethylamino)but-2-enoyl]-3-piperidyl]-6H-pyrrolo[2,3-d]pyridazin-7-one] |
| 6.00 to 8.00 | C=CC(=O)N1CC[C@@H](n2cc(-c3ccc(Oc4ccccc4F)cc3)c3c(N)n[nH]c(=O)c32)C1 [Example 106, (R)-1-(1-acryloylpyrrolidin-3-yl)-4-amino-3-(4-(2-fluorophenoxy)phenyl)-1H-pyrrolo[2,3-d]pyridazin-7(6H)-one] |
| 6.00 to 8.00 | CC#CC(=O)N1CCC[C@@H](n2cc(-c3ccc(Oc4c(F)cccc4F)cc3)c3c(N)n[nH]c(=O)c32)C1 [Example 117, (R)-4-amino-1-(1-(but-2-ynoyl)piperidin-3-yl)-3-(4-(2,6-difluorophenoxy)phenyl)-1H-pyrrolo[2,3-d]pyridazin-7(6H)-one] |
| 6.00 to 8.00 | C=CC(=O)N1CCC[C@@H](n2cc(-c3ccc(Oc4ccccc4)c(F)c3)c3c(N)n[nH]c(=O)c32)C1 [Example 74, (R)-1-(1-acryloylpiperidin-3-yl)-4-amino-3-(3-fluoro-4-phenoxyphenyl)-1H-pyrrolo[2,3-d]pyridazin-7(6H)-one] |
| ≥ 8.00 | CN(C)C/C=C/C(=O)N1CCC[C@@H](n2cc(-c3ccc(Oc4ccccc4F)cc3)c3c(N)n[nH]c(=O)c32)C1 [Example 57, 4-amino-1-[(3R)-1-[(E)-4-(dimethylamino)but-2-enoyl]-3-piperidyl]-3-[4-(2-fluorophenoxy)phenyl]-6H-pyrrolo[2,3-d]pyridazin-7-one] |
| ≥ 8.00 | CCN(CC)C/C=C/C(=O)N1CCC[C@@H](n2cc(-c3ccc(Oc4ccccc4)cc3)c3c(N)n[nH]c(=O)c32)C1 [Example 27, 4-amino-1-[(3R)-1-[(E)-4-(diethylamino)but-2-enoyl]-3-piperidyl]-3-(4-phenoxyphenyl)-6H-pyrrolo[2,3-d]pyridazin-7-one] |
| 6.00 to 8.00 | C=CC(=O)N1CCC(Cn2cc(-c3ccc(Oc4ccccc4)cc3)c3c(N)n[nH]c(=O)c32)C1 (stereo not shown) [Example 8, 4-amino-3-(4-phenoxyphenyl)-1-[(1-prop-2-enoylpyrrolidin-3-yl)methyl]-6H-pyrrolo[2,3-d]pyridazin-7-one] |
| 6.00 to 8.00 | CC#CC(=O)N1C[C@H](OC)[C@@H](n2cc(-c3ccc(Oc4ccccc4F)cc3)c3c(N)n[nH]c(=O)c32)C1 [Example 98, 4-amino-1-((3S,4S)-1-(but-2-ynoyl)-4-methoxypyrrolidin-3-yl)-3-(4-(2-fluorophenoxy)phenyl)-1H-pyrrolo[2,3-d]pyridazin-7(6H)-one] |
| ≥ 8.00 | C=CC(=O)N1CCCC(n2cc(-c3ccc(Oc4ccccc4F)cc3)c3c(N)n[nH]c(=O)c32)C1 (stereo not shown) [Example 55, 1-(1-acryloylpiperidin-3-yl)-4-amino-3-(4-(2-fluorophenoxy)phenyl)-1H-pyrrolo[2,3-d]pyridazin-7(6H)-one] |
| ≥ 8.00 | C=CC(=O)N1CCC[C@@H](n2cc(-c3ccc(Oc4ccccc4F)cc3)c3c(N)n[nH]c(=O)c32)C1 [Example 56, (R)-1-(1-acryloylpiperidin-3-yl)-4-amino-3-(4-(2-fluorophenoxy)phenyl)-1H-pyrrolo[2,3-d]pyridazin-7(6H)-one] |
| ≥ 8.00 | CN(C)C/C=C/C(=O)N1CCC[C@@H](n2cc(-c3ccc(Oc4ccccc4)cc3)c3c(N)n[nH]c(=O)c32)C1 [Example 26, 4-amino-1-[(3R)-1-[(E)-4-(dimethylamino)but-2-enoyl]-3-piperidyl]-3-(4-phenoxyphenyl)-6H-pyrrolo[2,3-d]pyridazin-7-one] |
| ≥ 8.00 | COc1ccc(-c2cn(C3CCCN(C(=O)/C=C/CN(C)C)C3)c3c(=O)[nH]nc(N)c23)cc1Cl (stereo not shown) [Example 54, 4-amino-3-(3-chloro-4-methoxy-phenyl)-1-[1-[(E)-4-(dimethylamino)but-2-enoyl]-3-piperidyl]-6H-pyrrolo[2,3-d]pyridazin-7-one] |
